Key:
P3 Fusarium = test: Antifungal bioassay (MCIC, spore germination); format: cell-based, P3 Fusarium (field isolate); settings: 10^7 spores/test; mean after 24 hours of treatment, at least three replicates
Experimental: Fungi were grown on an appropriate medium, in this case a potato dextrose agar plate, for several weeks. At the end of that period, the plate was flooded with about 5 mL of sterile distilled water to harvest spores. The spore concentration was determined by use of a hemocytometer and the spore suspension was stored in a sterile tube at 4° C. until it was needed. Then 82 microliters of potato dextrose broth and 3 microliters of spore suspension (ranging from 10^5 to 10^7 spores total) were added to 12 wells in a 96 well microtiter plate for each AMPPP to be tested, with 1-4 replicate sets of 12 wells prepared for each AMPPP within a single experiment. […] The amount of spore germination and fungal growth was recorded as a quantitative measurement at each observation time using a system of pluses and minuses: [-] meant no germination having occurred, [+] meant swollen spores with an extended germ tube, [++] meant the beginnings of mycelial growth with the overall appearance of a loose lattice, and [+++] meant a dense mycelial growth with the overall appearance of a thick opaque meshwork. The MCIC value for each AMPPP tested was then recorded, where the MCIC value is defined as the lowest peptide concentration at which no spore germination occurred (rating=[-]). […]

isolated chloroplasts = test: Oxygen evolution bioassay, phytotoxicity (isolated chloroplasts); format: cell-based, Spinach (Spinacia oleracea L. var. Melody)
Experimental: The following procedure for the preparation of chloroplasts to use in an oxygen electrode is similar to that of Gupta et al., "Development and Use of Chlorotetracycline Fluorescence as a Measurement Assay of Chloroplast Envelope-Bound Mg^2+, "Plant Physiol. 89, (1989) 753-761. Spinach (Spinacia oleracea L. var. `Melody`) was grown in 1:1 peat/vermiculite potting mix in a growth chamber with a 10 hour light period. The chamber temperature was maintained at 21° C. (day) and 16° C. (night) during the growth period. All plants were used for chloroplast isolation after 6-8 weeks of growth.
In order to obtain an enriched chloroplast fraction, about 12 g of deribbed spinach leaves were thoroughly washed and surface dried. The leaves were then cut into small pieces, each about 1/2 inch square, and were placed in a small blender jar containing 50 mL of chilled homogenization medium (0.33M sorbitol, 50 mM Hepes-NaOH, pH 6.8, 2mM Na2 EDTA, 1 mM MnCl2, 1 mM MgCl2). The tissue was blended twice for three second intervals on high speed in a blender. The resulting homogenate was filtered through four layers of cheesecloth and two layers of miracloth (Behring Diagnostics, La Jolla, Calif.) into two chilled 30 mL glass centrifuge tubes. The filtered solution was centrifuged for 1.0 minute at 750 g (2,200 RPM) in a JS 13.1 swinging bucket rotor in a Beckman J2-21M centrifuge (Beckman Instruments, Inc., Somerset, N.J.). The supernatant was then decanted and the pellet was gently resuspended by swirling at 0° C. About 15 mL of homogenization medium was added to each tube of chloroplasts before the chloroplasts were layered onto a 40% Percoll gradient (6 mL Percoll, 9 mL homogenization medium, and 0.03 g bovine serum albumin) in a 30 mL glass centrifuge tube. These tubes were centrifuged for 4.0 minutes at 2500 g (4000 RPM) in a JS 13.1 swinging bucket rotor in a Beckman J2-21M centrifuge. The supernatant was removed and the resulting pellet was resuspended in a small amount of homogenization medium (about 500 microliters).
Plastid concentration was generally expressed on a chlorophyll basis. Chlorophyll was determined by the method of Arnon "Copper Enzymes in Isolated Chloroplasts, Polyphenol Oxidase in Beta Vulgaris," Plant Physiol. 24, (1949) 1-15. About 50 microliters of chloroplast stock suspension was added to 10 mL of 80% acetone and this solution was incubated 5.0 minutes in the dark and then centrifuged for 5.0 minutes at 500 g (1630 RPM) in a Beckman GP centrifuge. The absorbance of the acetone-chloroplast solution was monitored at 645 nm, at 663 nm and at 730 nm. The chlorophyll concentration was then calculated as 10× [(absorbance at 645 nm×20.2)+(absorbance at 663 nm×8.02)--background at 730 nm]. This gave the amount of chlorophyll in micrograms for the original 50 microliters of chloroplasts. The concentration of chloroplasts was then adjusted with homogenization medium so that 50 microliters of suspension contained 26 micrograms of chlorophyll. These chloroplasts were only active for 11/2 to 2 hours and were therefore used immediately.
An oxygen electrode (Hansatech Instruments Ltd., Kings Lynn, Norfolk, England) was used to measure oxygen evolution from isolated chloroplasts. For a detailed discussion of the method see, D. Walker, "The Use of the Oxygen Electrode and Fluorescence Probes in Simple Measurements of Photosynthesis," supra. A saturated KCl solution was placed in the electrode well and a one-inch square of rolling paper or lens paper was placed in to the electrode well so that it soaked up KCl and formed an ionic bridge. A one-inch square of teflon membrane was then prepared, being careful not to touch its surface, and was placed over the soaked paper. Using the membrane applicator, an O ring was placed over the head of the electrode, thereby securing paper and membrane across the electrode. The CB-1D control box was turned on and the system was allowed to warm up approximately one hour before calibration. […]

With “Met-Mag 1 dimer (head-to-tail) [Peptide No. 9]” the “MCIC Values With: P3 Fusarium” value (P3 Fusarium) was 15+/-6 micrograms per mL and the “inhibition of oxygen evolution” value (isolated chloroplasts) was 100%.

— patent US5519115A, “Reverse antimicrobial peptides” (priority 1993, dated 1996)
